Assay results taken from patent US7351722B2, “Use of Mangafodipir for treating oxidative stress effects” (Universite Rene Descartes (Paris V), priority 2001, dated 2008).

Tested on: Hep 3B human hepatic cell line
Conditions: 62.5, 125, 250 μg/ml, 1 h before H2O2, MTT after 12 h
Description: The Hep 3B human hepatic cell line was also used for these experiments.
The cells were seeded in a 96-well culture plate, in a proportion of 5×10^4 cells per well, in a final volume of 50 μl.
One hundred μl of Mangafodipir solution at various concentrations (62.5, 125, 250 μg/ml) were deposited into each well (three wells per concentration tested). After incubation for one hour, 50 μl of a solution of H2O2 at 4 mM were deposited into each well.

## Manganese dipyridoxyl phosphate [Mangafodipir]
  mortality of hepatic cells under hydrogen peroxide-mediated oxidative stress: prevents the mortality of hepatic cells
